Measurements taken from patent US8865623B2, “Herbicidally active cyclic diones and derivatives thereof, processes for their preparation, compositions, and method of controlling weeds” (Syngenta Limited, priority 2009, dated 2014).

Key:
Format in all cases: in vivo
[1] = system: Echinochloa crus-galli (ECHCG); assay: Pre-emergence herbicidal activity, glasshouse pot test; details: Echinochloa crus-galli, 312 h; Rate 250 g/ha; pre-emergence spray; evaluated after 13 days; read-out: Pre-emergence activity ECHCG (100=total damage to plant; 0=no damage to plant)
Procedure: (§1) Seeds of a variety of test species were sown in standard soil in pots. After cultivation for one day (pre-emergence) or after 8 days cultivation (post-emergence) under controlled conditions in a glasshouse (at 24/16° C., day/night; 14 hours light; 65% humidity), the plants were sprayed with an aqueous spray solution derived from the formulation of the technical active ingredient in acetone/water (50:50) solution containing 0.5% Tween 20 (polyoxyethelyene sorbitan monolaurate, CAS RN 9005-64-5). The test plants were then grown in a glasshouse under controlled conditions in a glasshouse (at 24/16° C., day/night; 14 hours light; 65% humidity) and watered twice daily. After 13 days for pre and post-emergence, the test was evaluated (100=total damage to plant; 0=no damage to plant).
(§2) Lolium perenne (LOLPE), Alopecurus myosuroides (ALOMY), Echinochloa crus-galli (ECHCG), and Avena fatua (AVEFA).

Avena fatua (AVEFA) [2] = assay: as above; details: Avena fatua, 312 h; Rate 250 g/ha; pre-emergence spray; evaluated after 13 days; read-out: Pre-emergence activity AVEFA (100=total damage to plant; 0=no damage to plant)
Procedure: as §1, §2

[3] = system: Alopecurus myosuroides (ALOMY); assay: as above; details: Alopecurus myosuroides, 312 h; Rate 250 g/ha; pre-emergence spray; evaluated after 13 days; read-out: Pre-emergence activity ALOMY (100=total damage to plant; 0=no damage to plant)
Procedure: as §1, §2

[4] = system: Echinochloa crus-galli (ECHCG); assay: Post-emergence herbicidal activity, glasshouse pot test; details: Echinochloa crus-galli, 312 h, rate 250 g/ha, evaluated after 13 days, glasshouse, read-out: Post-emergence activity ECHCG (100=total damage to plant; 0=no damage to plant)
Procedure: as §1, §2

Avena fatua (AVEFA) [5] = assay: as above; details: Avena fatua, 312 h, rate 250 g/ha, evaluated after 13 days, glasshouse, read-out: Post-emergence activity AVEFA (100=total damage to plant; 0=no damage to plant)
Procedure: as §1, §2

[6] = system: Alopecurus myosuroides (ALOMY); assay: as above; details: Alopecurus myosuroides, 312 h, rate 250 g/ha, evaluated after 13 days, glasshouse, read-out: Post-emergence activity ALOMY (100=total damage to plant; 0=no damage to plant)
Procedure: as §1, §2

Lolium perenne (LOLPE) [7] = assay: Pre-emergence herbicidal activity, glasshouse pot test; details: Lolium perenne, 312 h; Rate 250 g/ha; pre-emergence spray; evaluated after 13 days; read-out: Pre-emergence activity LOLPE (100=total damage to plant; 0=no damage to plant)
Procedure: as §1, §2

Lolium perenne (LOLPE) [8] = assay: Post-emergence herbicidal activity, glasshouse pot test; details: Lolium perenne, 312 h, rate 250 g/ha, evaluated after 13 days, glasshouse, read-out: Post-emergence activity LOLPE (100=total damage to plant; 0=no damage to plant)
Procedure: as §1, §2

Structure (SMILES)	pest or weed control at 250 g/ha [1] [%]	pest or weed control at 250 g/ha (Avena fatua (AVEFA) [2]) [%]	pest or weed control at 250 g/ha [3] [%]	pest or weed control at 250 g/ha [4] [%]	pest or weed control at 250 g/ha (Avena fatua (AVEFA) [5]) [%]	pest or weed control at 250 g/ha [6] [%]	pest or weed control at 250 g/ha (Lolium perenne (LOLPE) [7]) [%]	pest or weed control at 250 g/ha (Lolium perenne (LOLPE) [8]) [%]
Cc1ccc(Oc2ccc(Cl)cc2Cl)cc1C1=C(O)C(C)(C)OC(C)(C)C1=O [Example A-2]	0	0	0	90	50	60	–	–
CCc1ccc(Oc2ccc(Cl)cc2)cc1C1=C(O)C(C)(C)OC(C)(C)C1=O [Example A-4]	100	0	40	100	0	80	–	–
CCc1ccc(Oc2cccc(Cl)c2)cc1C1=C(O)C(C)(C)OC(C)(C)C1=O [Example A-5]	90	0	0	90	0	20	–	–
CCc1ccc(Oc2ccccc2Cl)cc1C1=C(O)C(C)(C)OC(C)(C)C1=O [Example A-6]	30	0	0	70	0	0	–	–
CCc1ccc(Oc2ccc(Br)cc2F)cc1C1=C(O)C(C)(C)OC(C)(C)C1=O [Example A-7]	100	60	60	100	70	90	–	–
CCc1ccc(Oc2ccc(Br)cc2)cc1C1=C(O)C(C)(C)OC(C)(C)C1=O [Example A-8]	100	10	60	100	0	100	100	100
CCc1ccc(Oc2ccc(Br)cc2Cl)cc1C1=C(O)C(C)(C)OC(C)(C)C1=O [Example A-9]	100	30	60	100	100	90	80	80
CCc1ccc(Oc2ccc(F)c(C)c2)cc1C1=C(O)C(C)(C)OC(C)(C)C1=O [Example A-179]	–	0	0	20	0	0	0	20
CCc1ccc(Oc2ccc(Cl)cc2C)cc1C1=C(O)C(C)(C)OC(C)(C)C1=O [Example A-180]	–	0	0	30	0	0	0	10
CCc1ccc(Oc2ccc(OC(F)(F)F)cc2)cc1C1=C(O)C(C)(C)OC(C)(C)C1=O [Example A-242]	–	40	70	100	100	100	80	100
CCc1ccc(Oc2cnc3cc(Cl)ccc3n2)cc1C1=C(O)[C@@H]2CC[C@](C)(C1=O)C2(C)C [Example A-243]	–	80	90	100	100	100	100	100
